Test results reported in PMC5443610 (Journal of Medicinal Chemistry, 2017).
Values after ≈ are worked out from the molar mass of the structure shown. Values belong to the molecule of their own block, whether it stands above or below them.

What was measured:
BRPF1 BD = biological target: T1, BRPF1 BD (Homo sapiens, UniProt P55201); assay: TR-FRET binding competition assay
T1 sequence (P55201 626-740): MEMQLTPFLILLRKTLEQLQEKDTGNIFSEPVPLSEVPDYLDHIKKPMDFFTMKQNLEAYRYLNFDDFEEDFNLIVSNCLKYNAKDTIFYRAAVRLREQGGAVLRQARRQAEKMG

BRPF3 BD = biological target: T2, BRPF3 BD (Homo sapiens, UniProt Q9ULD4); assay: TR-FRET binding competition assay
T2 sequence (Q9ULD4 592-711): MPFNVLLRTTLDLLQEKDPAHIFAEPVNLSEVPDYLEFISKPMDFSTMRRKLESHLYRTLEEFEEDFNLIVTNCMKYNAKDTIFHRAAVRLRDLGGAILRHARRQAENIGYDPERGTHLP

TAF1L BD2 = biological target: T3, TAF1L BD2 (Homo sapiens, UniProt Q8IZX4); assay: biochemical; assay type: binding
T3 sequence (Q8IZX4 1517-1649): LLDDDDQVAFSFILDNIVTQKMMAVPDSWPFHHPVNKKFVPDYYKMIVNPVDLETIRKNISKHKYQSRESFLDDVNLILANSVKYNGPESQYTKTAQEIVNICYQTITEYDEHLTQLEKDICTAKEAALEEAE

BRPF1 = biological target: T4, BRPF1 (Homo sapiens, UniProt P55201); assay: AlphaScreen; assay type: binding
T4 sequence (P55201 628-732 limits assumed): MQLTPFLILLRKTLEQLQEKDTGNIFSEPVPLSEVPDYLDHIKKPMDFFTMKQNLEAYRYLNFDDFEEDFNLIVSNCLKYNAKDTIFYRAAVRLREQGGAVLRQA

BRPF3 = biological target: T5, BRPF3 (Homo sapiens, UniProt Q9ULD4); assay: AlphaScreen; assay type: binding
T5 sequence (Q9ULD4 589-693 limits assumed): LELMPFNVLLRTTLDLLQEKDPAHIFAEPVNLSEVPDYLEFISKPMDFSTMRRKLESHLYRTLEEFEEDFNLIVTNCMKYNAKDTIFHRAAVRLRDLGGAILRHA

CREBBP = CREBBP (Homo sapiens, UniProt Q92793); assay: AlphaScreen; assay type: binding
CREBBP, sequence (Q92793 1081-1197): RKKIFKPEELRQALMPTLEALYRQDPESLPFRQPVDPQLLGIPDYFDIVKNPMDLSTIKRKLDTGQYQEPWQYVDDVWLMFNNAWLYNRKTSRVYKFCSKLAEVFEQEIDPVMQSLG

CREBBP BD = CREBBP BD (Homo sapiens, UniProt Q92793); assay: Isothermal titration calorimetry; assay type: binding
CREBBP BD, sequence (Q92793 1081-1197): as above

BRPF1 BD/H4 = biological target: T6, BRPF1 BD/H4 (Homo sapiens, UniProt P55201); assay: NanoBRET cellular assay; assay type: cell-based
T6 sequence (P55201 626-732): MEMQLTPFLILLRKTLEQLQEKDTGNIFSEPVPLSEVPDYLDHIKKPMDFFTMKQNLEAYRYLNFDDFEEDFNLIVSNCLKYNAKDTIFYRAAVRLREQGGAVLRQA

[1] = system: panel containing over 300 kinases; assay: Kinase panel; assay type: biochemical; conditions: 10 μM, all cases
68 potential targets = assay: LeadProfilingScreen; conditions: 10 μM compound
[2] = Metabolic stability in liver microsomes; assay type: in vitro ADME; conditions: mouse liver microsomes
[3] = Metabolic stability in liver microsomes; assay type: in vitro ADME; conditions: rat liver microsomes
[4] = Metabolic stability in liver microsomes; assay type: in vitro ADME; conditions: dog liver microsomes
[5] = Metabolic stability in liver microsomes; assay type: in vitro ADME; conditions: human liver microsomes
[6] = Metabolic stability in hepatocytes; assay type: in vitro ADME; conditions: rat hepatocytes
Caco2 permeability assay = assay type: in vitro ADME; conditions: human, Caco-2, pH 7.2, Caco2 Papp (B-A), 2 μM, 2 h
[7] = In vivo rat pharmacokinetics; design: species or system Wistar rat
BRPF2 BD/H4 = biological target: T7, BRPF2 BD/H4 (Homo sapiens, UniProt O95696); assay: NanoBRET cellular assay; assay type: cell-based; conditions: HCT116 cells
T7 sequence (O95696 560-666): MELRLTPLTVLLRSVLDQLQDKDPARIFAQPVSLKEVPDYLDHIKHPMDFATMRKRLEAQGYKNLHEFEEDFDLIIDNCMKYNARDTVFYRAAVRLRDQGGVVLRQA

BRD4 BDs = BRD4 BDs (Homo sapiens, UniProt O60885); assay: AlphaScreen; assay type: binding
panel of 22 kinases = assay: Panel of 22 kinases; assay type: biochemical; conditions: data not shown
Caco2 cells = assay: Caco2 permeability assay; assay type: in vitro ADME
[8] = Reversed-phase HPLC lipophilicity; assay type: physicochemical; conditions: pH 7.5
[9] = High-throughput aqueous solubility from DMSO solution; assay type: physicochemical; conditions: pH 6.5 buffer

IC50 (BRPF1 BD; BRPF1 IC50, TR-FRET): 3150 nM
IC50 (BRPF3 BD): 5550 nM
IC50 (TAF1L BD2): 106 nM
IC50 (BRPF1): 2280 nM
IC50 (BRPF3): 2450 nM
IC50 (CREBBP): 1710 nM
Kd (CREBBP BD): 1390 nM
IC50 (BRPF1 BD/H4): > 10000 nM
inhibition in kinase panel [1]: less than 50%
CLblood [2]: 3.17 mL/min/kg
CLblood [3]: 2.5 mL/min/kg
CLblood [4]: < 0.017 mL/min/kg
Fmax [4]: 100%
CLblood [5]: < 0.017 mL/min/kg
Fmax [5]: 100%
CLblood [6]: 63.3 mL/min/kg
Papp B→A at 2 h, 2 μM (Caco2 permeability assay): 19.1 ×10⁻⁶ cm/s
blood clearance as share of hepatic blood flow [7]: ca. 17%
CLblood ([7]; in vivo): 12.2 mL/min/kg
SMILES: Cc1cc2c(cc1N1C(=O)c3cccc4c(CCCO)ccc(c34)C1=O)n(C)c(=O)n2C (racemic) [Compound 5, 6-(3-Hydroxypropyl)-2-(1,3,6-trimethyl-2-oxo-2,3-dihydro-1H-benzimidazol-5-yl)-1H-benzo[de]isoquinoline-1,3(2H)-dione]
inhibition or stimulation in LeadProfilingScreen (68 potential targets): ≤ 25%

IC50 (BRPF2 BD/H4): 470 nM
SMILES: Cc1cc2c(cc1N1C(=O)c3cccc4cccc(c34)C1=O)n(C)c(=O)n2C [Compound 7, 2-(1,3,6-Trimethyl-2-oxo-2,3-dihydro-1H-benzimidazol-5-yl)-1H-benzo[de]isoquinoline-1,3(2H)-dione]

IC50 (BRPF1 BD; BRPF1 IC50, TR-FRET): 5860 nM
SMILES: Cc1cc2c(cc1N1C(=O)c3cccc4c(CCCO)ccc(c34)C1=O)n(C)c(=O)n2C (single isomer, unassigned) [atropisomer 1, (−)-6-(3-Hydroxypropyl)-2-(1,3,6-trimethyl-2-oxo-2,3-dihydro-1H-benzimidazol-5-yl)-1H-benzo[de]isoquinoline-1,3(2H)-dione]

activity for BRPF3 (BRPF3; AlphaScreen): no activity
activity for BRD4 BDs (BRD4 BDs): no activity
SMILES: Cn1c(=O)[nH]c2cc(N3C(=O)c4cccc5c(CCCO)ccc(c45)C3=O)ccc21 [Compound 31, 6-(3-Hydroxypropyl)-2-(1-methyl-2-oxo-2,3-dihydro-1H-benzimidazol-5-yl)-1H-benzo[de]isoquinoline-1,3(2H)-dione]
no activity up to, panel of 22 kinases (panel of 22 kinases): > 10 µM

IC50 (BRPF1 BD; BRPF1 IC50, TR-FRET): 5490 nM
SMILES: Cc1cc2c(cc1N1C(=O)c3cccc4c(CCCO)ccc(c34)C1=O)n(C)c(=O)n2C (single isomer, unassigned) [atropisomer 2, (+)-6-(3-Hydroxypropyl)-2-(1,3,6-trimethyl-2-oxo-2,3-dihydro-1H-benzimidazol-5-yl)-1H-benzo[de]isoquinoline-1,3(2H)-dione]

IC50 (BRPF1 BD; BRPF1: inactive up to concentration, TR-FRET, HTS hit dose-response): > 20000 nM
IC50 (BRPF3 BD): > 20000 nM
permeability profile in Caco2 cells (Caco2 cells): excellent permeability profile
chromatographic logD [8]: 2.1
solubility at 24 h [9]: 3.7 µg/mL (≈ 10.4 µM)
SMILES: Cn1c(=O)n(C)c2cc(N3C(=O)c4cccc5cccc(c45)C3=O)ccc21 [Compound 6]

cellular activity for BRPF1 (BRPF1 BD/H4; NanoBRET): no activity
SMILES: Cc1cc2c(cc1N1C(=O)c3cccc4c(Cl)ccc(c34)C1=O)n(C)c(=O)n2C [Compound 13, 6-Chloro-2-(1,3,6-trimethyl-2-oxo-2,3-dihydro-1H-benzimidazol-5-yl)-1H-benzo[de]isoquinoline-1,3(2H)-dione]
